Laboratory results as given in patent US10266513B2 (Pfizer Inc., priority 2012, dated 2019).

What follows are compounds tested against human full-length BTK Kinase (Homo sapiens (Human), UniProt Q06187) (assay: Human BTK LanthaScreen Assay (TR-FRET)). Conditions: 50 μM ATP, FAM-Srctide peptide substrate, read-out: BTK Inhibition IC50.
Assay type: biochemical
Excerpt: Human BTK LanthaScreen Assay

Chain of human full-length BTK Kinase (Q06187 whole entry): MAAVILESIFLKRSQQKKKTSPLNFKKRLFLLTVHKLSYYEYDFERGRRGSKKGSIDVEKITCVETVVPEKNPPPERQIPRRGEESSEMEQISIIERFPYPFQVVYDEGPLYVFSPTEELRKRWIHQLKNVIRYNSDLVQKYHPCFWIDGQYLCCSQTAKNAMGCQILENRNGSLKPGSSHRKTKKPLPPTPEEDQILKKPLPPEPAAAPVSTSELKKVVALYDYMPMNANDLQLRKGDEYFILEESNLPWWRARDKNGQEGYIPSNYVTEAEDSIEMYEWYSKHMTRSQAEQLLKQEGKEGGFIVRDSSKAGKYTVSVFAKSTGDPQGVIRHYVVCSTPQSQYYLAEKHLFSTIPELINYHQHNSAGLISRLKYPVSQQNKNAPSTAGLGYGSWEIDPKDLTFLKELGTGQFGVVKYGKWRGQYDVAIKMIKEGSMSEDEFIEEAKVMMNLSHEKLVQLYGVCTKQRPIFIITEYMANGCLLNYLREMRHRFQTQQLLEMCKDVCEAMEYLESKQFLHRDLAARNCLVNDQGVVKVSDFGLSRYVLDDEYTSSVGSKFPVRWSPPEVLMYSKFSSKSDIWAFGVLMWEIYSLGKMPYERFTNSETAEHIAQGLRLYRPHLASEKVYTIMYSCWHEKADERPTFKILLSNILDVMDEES

| SMILES | IC50 [nM] |
| --- | --- |
| Cc1ccc(Oc2cccc(-c3nn(C4CCCN(C#N)C4)c(N)c3C(N)=O)c2)cc1F (stereo not shown) [Example 96, 5-amino-1-(1-cyanopiperidin-3-yl)-3-[3-(3-fluoro-4-methylphenoxy)phenyl]-1H-pyrazole-4-carboxamide] | 21.9 |
| CC(C)c1ccccc1Oc1cccc(-c2nn(C3CCCN(C#N)C3)c(N)c2C(N)=O)c1 (stereo not shown) [Example 97, 5-amino-1-(1-cyanopiperidin-3-yl)-3-[3-(2-isopropylphenoxy)phenyl]-1H-pyrazole-4-carboxamide] | 52.8 |
| Cc1ccc(Oc2cccc(-c3nn(C4CCCN(C#N)C4)c(N)c3C(N)=O)c2)cc1 (stereo not shown) [Example 98, 5-amino-1-(1-cyanopiperidin-3-yl)-3-[3-(4-methylphenoxy)phenyl]-1H-pyrazole-4-carboxamide] | 27.3 |
| Cc1cc(Oc2cccc(-c3nn(C4CCCN(C#N)C4)c(N)c3C(N)=O)c2)ccc1Cl (stereo not shown) [Example 99, 5-amino-3-[3-(4-chloro-3-methylphenoxy)-phenyl]-1-(1-cyanopiperidin-3-yl)-1H-pyrazole-4-carboxamide] | 15.6 |
| CC(C)c1ccc(Oc2cccc(-c3nn(C4CCCN(C#N)C4)c(N)c3C(N)=O)c2)cc1 (stereo not shown) [Example 100, 5-amino-1-(1-cyanopiperidin-3-yl)-3-[3-(4-isopropylphenoxy)phenyl]-1H-pyrazole-4-carboxamide] | 16.3 |
| Cc1cc(Oc2cccc(-c3nn(C4CCCN(C#N)C4)c(N)c3C(N)=O)c2)ccc1C(C)C (stereo not shown) [Example 101, 5-amino-1-(1-cyanopiperidin-3-yl)-3-[3-(4-isopropyl-3-methylphenoxy)phenyl]-1H-pyrazole-4-carboxamide] | 5.3 |
| N#CN1CCCC(n2nc(-c3cccc(Oc4ccc(F)c(F)c4)c3)c(C(N)=O)c2N)C1 (stereo not shown) [Example 105, 5-amino-1-(1-cyanopiperidin-3-yl)-3-[3-(3,4-difluorophenoxy)phenyl]-1H-pyrazole-4-carboxamide] | 55.5 |
| N#CN1CCCC(n2nc(-c3cccc(Oc4ccc(OC(F)(F)F)c(F)c4)c3)c(C(N)=O)c2N)C1 (stereo not shown) [Example 106, 5-amino-1-(1-cyanopiperidin-3-yl)-3-{3-[3-fluoro-4-(trifluoromethoxy)phenoxy]phenyl}-1H-pyrazole-4-carboxamide] | 58 |
| N#CN1CCCC(n2nc(-c3ccc(Oc4ccccc4)nc3)c(C(N)=O)c2N)C1 (stereo not shown) [Example 107, 5-amino-1-(1-cyanopiperidin-3-yl)-3-(6-phenoxypyridin-3-yl)-1H-pyrazole-4-carboxamide] | 171 |
| N#CN1CCCC(n2nc(-c3ccc(Oc4ccc(Cl)cn4)cc3)c(C(N)=O)c2N)C1 (stereo not shown) [Example 108, 5-amino-3-(4-((5-chloropyridin-2-yl)oxy)phenyl)-1-(1-cyanopiperidin-3-yl)-1H-pyrazole-4-carboxamide] | 7.8 |
| N#CN1CCCC(n2nc(-c3ccc(Oc4ccc(F)cn4)cc3)c(C(N)=O)c2N)C1 (stereo not shown) [Example 111, 5-amino-1-(1-cyanopiperidin-3-yl)-3-{4-[(5-fluoropyridin-2-yl)oxy]phenyl}-1H-pyrazole-4-carboxamide] | 119 |
| Cc1ccc(Oc2ccc(-c3nn(C4CCCN(C#N)C4)c(N)c3C(N)=O)cc2)nc1 (stereo not shown) [Example 112, 5-amino-1-(1-cyanopiperidin-3-yl)-3-(4-((5-methylpyridin-2-yl)oxy)phenyl)-1H-pyrazole-4-carboxamide] | 16.5 |
| N#CN1CCCC(n2nc(-c3ccc(Oc4ncc(F)cc4F)cc3)c(C(N)=O)c2N)C1 (stereo not shown) [Example 115, 5-amino-1-(1-cyanopiperidin-3-yl)-3-{4-[(3,5-difluoropyridin-2-yl)oxy]phenyl}-1H-pyrazole-4-carboxamide] | 3.7 |
| N#CN1CCC[C@H](n2nc(-c3ccc(Oc4cccc(C(F)(F)F)n4)cc3)c(C(N)=O)c2N)C1 [Example 117] | 18.9 |
| N#CN1CCC[C@H](n2nc(-c3ccc(Oc4ncc(Cl)cc4F)cc3)c(C(N)=O)c2N)C1 [Example 119, (S)-5-amino-3-(4-((5-chloro-3-fluoropyridin-2-yl)oxy)phenyl)-1-(1-cyanopiperidin-3-yl)-1H-pyrazole-4-carboxamide] | 60.5 |
| N#CN1CCCC(n2nc(-c3ccc(Oc4ccc(F)cc4)cc3Cl)c(C(N)=O)c2N)C1 (stereo not shown) [Example 120, 5-amino-3-[2-chloro-4-(4-fluorophenoxy)phenyl]-1-(1-cyanopiperidin-3-yl)-1H-pyrazole-4-carboxamide] | 141 |
| C[C@H]1CC[C@@H](n2nc(-c3ccc(Oc4ccc(F)cc4F)cc3)c(C(N)=O)c2N)CN1C#N [Example 122, 5-amino-1-[(3R,6S)-1-cyano-6-methylpiperidin-3-yl]-3-[4-(2,4-difluorophenoxy)phenyl]-1H-pyrazole-4-carboxamide] | 0.46 |

| SMILES | IC50 [nM] |
| --- | --- |
| C[C@@H]1CC[C@H](n2nc(-c3ccc(Oc4ccc(F)cc4F)cc3)c(C(N)=O)c2N)CN1C#N [Example 123, 5-amino-1-[(3S,6R)-1-cyano-6-methylpiperidin-3-yl]-3-[4-(2,4-difluorophenoxy)phenyl]-1H-pyrazole-4-carboxamide] | 396 |
| N#CN1CCCC(n2nc(-c3ccc(Sc4ccc(Cl)cc4)cc3)c(C(N)=O)c2N)C1 (stereo not shown) [Example 124, 5-amino-3-{4-[(4-chlorophenyl)thio]phenyl}-1-(1-cyanopiperidin-3-yl)-1H-pyrazole-4-carboxamide] | 0.74 |
| N#CN1CCCC(n2nc(-c3ccc(Sc4ccccc4)cc3)c(C(N)=O)c2N)C1 (stereo not shown) [Example 125, 5-amino-1-(1-cyanopiperidin-3-yl)-3-[4-(phenylthio)phenyl]-1H-pyrazole-4-carboxamide] | 0.4 |
| C/C=C/C(=O)N1CCCC(n2nc(-c3ccc(Oc4ccccc4)cc3)c(C(N)=O)c2N)C1 (stereo not shown) [Example 128, 5-amino-1-{1-[(2E)-but-2-enoyl]piperidin-3-yl}-3-(4-phenoxyphenyl)-1H-pyrazole-4-carboxamide] | 4.5 |
| NC(=O)c1c(-c2ccc(Oc3ccccc3)cc2)nn([C@@H]2CCCN(C(=O)/C=C/CO)C2)c1N [Example 129, 5-amino-1-{(3R)-1-[(2E)-4-hydroxybut-2-enoyl]piperidin-3-yl}-3-(4-phenoxyphenyl)-1H-pyrazole-4-carboxamide] | 1 |
| NC(=O)c1c(-c2ccc(Oc3ccc(Cl)cc3)cc2)nn([C@@H]2CCCN(C(=O)/C=C/CF)C2)c1N [Example 132, 5-amino-3-[4-(4-chlorophenoxy)phenyl]-1-{(3R)-1-[(2E)-4-fluorobut-2-enoyl]piperidin-3-yl}-1H-pyrazole-4-carboxamide] | 1.1 |
| NC(=O)c1c(-c2ccc(Oc3ccc(Cl)cc3)cc2)nn([C@@H]2CCCN(C(=O)/C=C/C(F)F)C2)c1N [Example 133, 5-amino-3-[4-(4-chlorophenoxy)phenyl]-1-{(3R)-1-[(2E)-4,4-difluorobut-2-enoyl]piperidin-3-yl}-1H-pyrazole-4-carboxamide] | 0.38 |
| C=C(F)C(=O)N1CCC[C@@H](n2nc(-c3ccc(Oc4ccc(Cl)cc4)cc3)c(C(N)=O)c2N)C1 [Example 134, 5-amino-3-[4-(4-chlorophenoxy)phenyl]-1-[(3R)-1-(2-fluoroacryloyl)piperidin-3-yl]-1H-pyrazole-4-carboxamide] | 5 |
| N#C/C=C/C(=O)N1CCC[C@@H](n2nc(-c3ccc(Oc4ccc(Cl)cc4)cc3)c(C(N)=O)c2N)C1 [Example 135, 5-amino-3-[4-(4-chlorophenoxy)phenyl]-1-{(3R)-1-[(2E)-3-cyanoprop-2-enoyl]piperidin-3-yl}-1H-pyrazole-4-carboxamide] | 1.2 |
| COC/C=C/C(=O)N1CCC[C@@H](n2nc(-c3ccc(Oc4ccc(F)cc4F)cc3)c(C(N)=O)c2N)C1 [Example 138, 5-amino-3-[4-(2,4-difluorophenoxy)phenyl]-1-{(3R)-1-[(2E)-4-methoxybut-2-enoyl]piperidin-3-yl}-1H-pyrazole-4-carboxamide] | 21.8 |
| C=C(C)C(=O)N1CCC[C@@H](n2nc(-c3ccc(Oc4ccc(F)cc4F)cc3)c(C(N)=O)c2N)C1 [Example 139, 5-amino-3-[4-(2,4-difluorophenoxy)phenyl]-1-[(3R)-1-(2-methylacryloyl)piperidin-3-yl]-1H-pyrazole-4-carboxamide] | 247 |
| NC(=O)c1c(-c2ccc(Oc3ccc(F)cc3F)cc2)nn([C@@H]2CCCN(C(=O)/C=C/CCO)C2)c1N [Example 141, 5-amino-3-[4-(2,4-difluorophenoxy)phenyl]-1-{(3R)-1-[(2E)-5-hydroxypent-2-enoyl]piperidin-3-yl}-1H-pyrazole-4-carboxamide] | 58 |
| C/C=C/C(=O)N1CCC[C@@H](n2nc(-c3ccc(Oc4ccc(F)cc4F)cc3)c(C(N)=O)c2N)C1 [Example 142, 5-amino-1-{(3R)-1-[(2E)-but-2-enoyl]piperidin-3-yl}-3-[4-(2,4-difluorophenoxy)phenyl]-1H-pyrazole-4-carboxamide] | 61 |
| CC/C=C/C(=O)N1CCC[C@@H](n2nc(-c3ccc(Oc4ccc(F)cc4F)cc3)c(C(N)=O)c2N)C1 [Example 143, 5-amino-3-[4-(2,4-difluorophenoxy)phenyl]-1-{(3R)-1-[(2E)-pent-2-enoyl]piperidin-3-yl}-1H-pyrazole-4-carboxamide] | 125 |
| NC(=O)c1c(-c2ccc(Oc3ccc(F)cc3F)cc2)nn([C@@H]2CCCN(C(=O)/C(F)=C/CO)C2)c1N [Example 146, 5-amino-3-[4-(2,4-difluorophenoxy)phenyl]-1-{(3R)-1-[(2Z)-2-fluoro-4-hydroxybut-2-enoyl]piperidin-3-yl}-1H-pyrazole-4-carboxamide] | 48 |
| CC(C)(O)/C=C/C(=O)N1CCC[C@@H](n2nc(-c3ccc(Oc4ccc(F)cc4F)cc3)c(C(N)=O)c2N)C1 [Example 147, 5-amino-3-[4-(2,4-difluorophenoxy)phenyl]-1-{(3R)-1-[(2E)-4-hydroxy-4-methylpent-2-enoyl]piperidin-3-yl}-1H-pyrazole-4-carboxamide] | 241 |
| C[C@H](O)/C=C/C(=O)N1CCC[C@@H](n2nc(-c3ccc(Oc4ccc(F)cc4F)cc3)c(C(N)=O)c2N)C1 [Example 148, 5-amino-3-[4-(2,4-difluorophenoxy)phenyl]-1-{(3R)-1-[(2E,4S)-4-hydroxypent-2-enoyl]piperidin-3-yl}-1H-pyrazole-4-carboxamide] | 39 |
